Here are results for 80 compounds from the METLIN SMRT retention time set (Domingo-Almenara et al. 2019).

This data set in a line: gradient 5% acetonitrile 3 min, to 50% in 2 min, to 85% in 15 min, held 3 min, 100 µL/min. As to conditions: column: Zorbax Extend-C18 2.1 x 50 mm; eluents: water / acetonitrile, 0.1% formic acid. The method in brief: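 Standards, all pure, were combined into mixtures of ~100 molecules and run at 100 μL/min on a Zorbax Extend-C18 column (2.1 × 50 mm, 1.8 μm) with water and acetonitrile, each containing 0.1% formic acid. A coupled quadrupole time-of-flight mass spectrometer operated in positive and negative ionization mode. Retention time values come from computationally picked adduct peaks, each inspected manually.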
The compound `COc1cc(NC(=O)N2CCC(c3nc(C(=O)N(C)C)c(C)o3)CC2)cc(OC)c1` registered an RP-LC retention time of 711 s.

Turning to `CC(C)c1ccc(C(=O)NC(Cc2ccccc2)c2nnc(N3CCSCC3)o2)cc1` (stereo not given), the RP-LC retention time was found to be 996 s. The value for `CCOc1ccc(S(=O)(=O)N2CCCC(C(=O)NC(C)C)C2)cc1` (stereo not given) was 825 s; that for `CCc1cc(C(=O)Nc2ccc(C)cc2F)nc2ccnn12` was 1140 s; that for `CCc1ccc(-c2cc(C(N)=O)[nH]n2)cc1` was 708 s.

`COc1cc(C(CC(=O)N2CCCCCC2)N2Cc3ccccc3C2=O)cc(OC)c1OC` (stereo not given): the RP-LC retention time was found to be 797 s. As to `O=C(NCc1ccccc1Cl)c1csc(C(=O)NC2CCCC2)n1`, the RP-LC retention time turned out to be 931 s. The compound `O=C(Nc1cccc(C(F)(F)F)c1)c1cnc(-c2ccccc2)nc1-c1ccncc1` had an RP-LC retention time of 859 s. Take `CCCS(=O)(=O)N1CC(=O)N(c2ccc(C)c(Cl)c2)C(C)(C(=O)NC2CCCCC2)C1` (stereo not given): the RP-LC retention time is 979 s. In turn, `COc1ccc(NC(=O)N2CCCC2c2nc(-c3ccc(F)cc3F)no2)cc1Cl` (stereo not given) yielded an RP-LC retention time of 982 s.

The compound `CCC1CN2C=Nc3oc(C)c(C(=O)Nc4ccc(C)c(F)c4)c3C2=N1` (stereo not given) displayed an RP-LC retention time of 689 s. The value for `CCc1nc2nc3c(c(N4CCN(c5ccccn5)CC4)n2n1)CCC3` was 581 s; that for `O=C(Nc1nccs1)c1cn(Cc2ccc(F)cc2)cc2c(=O)n(-c3ccccc3)nc1-2` was 957 s. The figure for `COc1ccc(-c2nc(Cn3ccn4nc(-c5ccccc5)cc4c3=O)c(C)o2)cc1` is 1100 s; for `O=C(CCc1ccccc1)Nc1cnc(N2CCOCC2)nc1` it is 744 s. The figure for `CCOC(=O)c1oc2ccccc2c1NC(=O)C1CCCN1S(C)(=O)=O` (stereo not given) is 796 s. On to `Cc1cccc(N(C(=O)Nc2ccccc2C)C2=NCCC2)c1`, for which the RP-LC retention time stood at 1100 s.

For `COc1cccc2cc(C(=O)NCc3ccc(S(N)(=O)=O)cc3)oc12`, the RP-LC retention time was 669 s. Consider `CCN1CCC(N(Cc2cccs2)C(=O)Nc2ccc(Cl)cc2)CC1`, for which the RP-LC retention time worked out at 682 s. The figure for `CC(NC(=O)C1CCN(CCc2cn(C)c3ncccc23)CC1)c1ccc(F)cc1` (stereo not given) is 616 s. The figure for `COc1ccc(CC(=O)N2CCC3(C2)C(=O)N(C)c2ccccc23)cc1` (stereo not given) is 782 s; for `COC[C@@H]1CN(Cc2cn(C)c3ccccc23)C[C@H]1c1nc(C)no1` it is 656 s. The value for `COc1cc(OC)c(NC(=O)Cc2nnc(-c3cnccn3)o2)cc1Cl` was 647 s.

`COC1CCC12CCN(Cc1cccc(F)c1)CC2` (stereo not given) showed an RP-LC retention time of 637 s. With `O=C(c1cccnc1)N1CCC(n2c(-c3ccsc3)nc3cccnc32)C1` (stereo not given), the RP-LC retention time was found to be 576 s. The value for `CCn1cc(C(=O)Nc2cc(C)cc(C)c2)c(S(=O)(=O)N2CCSCC2)n1` was 944 s; that for `Cc1ccc(-c2cc3c(=O)n(Cc4noc(CN5CCC(C)CC5)n4)ccn3n2)cc1` was 713 s; that for `COCCNC(=O)c1ccc2c(c1)CCCN2S(=O)(=O)c1ccc(Cl)cc1` was 885 s. The value for `O=C(Nc1ccc(-n2cnc(C(=O)N3CCCCCC3)c2)nc1)C1CC1` was 698 s. For `Cc1ccc(Cn2c(=O)c(N3CCC(NC(=O)NC(C)C)CC3)nc3cccnc32)cc1`, the RP-LC retention time was 986 s.

The compound `Cc1ccc(N(C)S(=O)(=O)c2cc(-c3cc(C(F)(F)F)on3)sc2C)cc1` gave an RP-LC retention time of 1320 s. Regarding `Cc1cc(NS(=O)(=O)c2ccc(Nc3nc(-c4ccc(Cl)c(Cl)c4)cs3)cc2)no1`, the RP-LC retention time amounted to 1130 s. The figure for `Cc1ccc(NC(=O)C(=O)c2ccc[nH]2)cc1F` is 917 s.

On to `COc1ccc2[nH]cc(CCNC(=O)c3cc(Cl)ccc3Cl)c2c1`, for which the RP-LC retention time was 878 s. Take `Cc1ccc(Nc2c(-c3ccc4c(c3)OCO4)nc3cnccn23)c(Br)c1`: the RP-LC retention time amounted to 1000 s.

For the compound `CN1CCN(C(=O)C2CCN(S(=O)(=O)c3cc4c(cc3Cl)NC(=O)CO4)CC2)CC1`, the RP-LC retention time was found to be 580 s. The figure for `Cc1oc(-c2ccc(NC(=O)c3ccc(Cl)s3)cc2)nc1Cn1cccn1` is 980 s; for `Cc1ccc2c(C(=O)N3CCN(Cc4ccccc4)CC3)cc(NC(=O)C(C)C)cc2n1` it is 571 s; for `Cc1cc(NC(=O)NC2CCN(c3nc4ccccc4n(C)c3=O)CC2)ccc1Br` it is 1050 s. With `Cn1cnc(S(=O)(=O)N2CCC(C(=O)NC3CCCc4ccccc43)CC2)c1` (stereo not given), the RP-LC retention time came out at 728 s.

For the compound `COCCN1C(=O)c2ccccc2C(C(=O)NCc2ccccc2)C1c1cccs1` (stereo not given), the RP-LC retention time was determined as 842 s. As for `CCOC(=O)c1c(S(=O)(=O)N2CCC(C(=O)Nc3ccc(F)cc3F)CC2)c(C)n(CC)c1C`, the RP-LC retention time stood at 895 s. The figure for `CCN(C(=O)C1CCN(S(=O)(=O)c2ccc3c(c2)sc(=O)n3CC)CC1)c1ccccc1` is 942 s; for `CCN(CC)C(=O)C1C(=O)NC2(C)CC1c1ccccc1O2` (stereo not given) it is 716 s. For the compound `c1cc(CN2CCCCC2)ccc1CC1CCNCC1`, the RP-LC retention time was determined as 528 s. For the compound `Cc1ccsc1C(=O)NCC1CN(C(C)C)CC12CCCCC2` (stereo not given), the RP-LC retention time came to 652 s. Consider `COc1cc([C@@H]2c3cc4c(cc3[C@H](O)[C@@H](CO)[C@@H]2C(=O)NCCCc2ccccc2)OCO4)cc(OC)c1OC`, for which the RP-LC retention time came out at 761 s.

Regarding `COc1ccc(NC(=O)N2CCC(C)(C(=O)NCc3ccc4c(c3)OCO4)CC2)c(OC)c1`, the RP-LC retention time amounted to 720 s.

`CC(C)NC(=O)c1nc2ccccn2c1-c1ccc(Cl)cc1` came in with an RP-LC retention time of 846 s.

Consider `COc1cccc(NC(=O)N2CCC[C@@H]2C(=O)NCc2csc(-c3cccs3)n2)c1`, for which the RP-LC retention time came out at 773 s. The compound `CCOC(=O)c1cc(S(=O)(=O)N2CC3CC(C2)c2cccc(=O)n2C3)cn1C` (stereo not given) registered an RP-LC retention time of 704 s. For `Cc1nnc(-c2coc(S(=O)(=O)N3CCCCC3)c2)o1`, the RP-LC retention time came out at 767 s. The value for `Cc1ccnc(N2CCCC(C(=O)NCCCN3CCCCCC3)C2)n1` (stereo not given) was 586 s.

The compound `CCc1nc(-c2csc(S(=O)(=O)N3CCC(C(=O)NCc4ccc(F)cc4)CC3)c2)no1` came in with an RP-LC retention time of 935 s.

With `Cc1ccc(CNC(=O)Cn2c(C(C)C)nc3c(c2=O)CN(Cc2ccccc2)CC3)cc1`, the RP-LC retention time came out at 694 s.

Regarding `O=C(O)c1ccc2c(ccn2Cc2ccccc2)c1`, the RP-LC retention time is 843 s.

On to `CCn1nc(C)n2cc(S(=O)(=O)NCc3ccc(F)cc3F)cc2c1=O`, for which the RP-LC retention time was determined as 856 s. For the compound `COc1ccc(C(=C2C(=O)Nc3ccccc32)c2ccc(OC)cc2)cc1`, the RP-LC retention time is 974 s.

In the case of `CN(C)c1ccc(-c2nc3ncccn3c2NCc2ccccc2)cc1`, the RP-LC retention time was 726 s. The value for `CCc1nccn1Cc1noc(-c2cccc(C)c2)n1` was 658 s. The figure for `Cc1ccc(CNC(=O)CN2C(=O)C3CCCCN3c3ccc(S(=O)(=O)N4CCCC4)cc32)o1` (stereo not given) is 905 s. Compound `Cc1cc(C(=O)Nc2ccc3c(c2)CCC(=O)N3)no1` returned an RP-LC retention time of 637 s. `COC(=O)c1ccc(COc2cc(O)c3c(=O)cc(-c4ccccc4)oc3c2)cc1` returned an RP-LC retention time of 1290 s. Take `CCc1nnc(NC(=O)c2ccc(-c3ccccc3Cl)o2)s1`: the RP-LC retention time was 906 s. `CCc1noc(NC(C)=O)c1-c1ccc(C)c(S(=O)(=O)N2CCCCC2)c1` showed an RP-LC retention time of 879 s. The figure for `COc1ccc(N2CCN(c3cc(SCC(=O)Nc4ccc(F)cc4C)ncn3)CC2)cc1` is 959 s; for `CS(=O)(=O)Nc1ccc2oc3c(OC(F)F)ccc(C(=O)Nc4c(Cl)cncc4Cl)c3c2c1` it is 967 s; for `Cc1cccc(N2CCN(Cc3nc(-c4ccc(N5CCCCC5)nc4)no3)CC2)c1` it is 965 s. In turn, `O=C(CSc1nccn1Cc1ccc(Cl)cc1)NCCc1ccccc1` registered an RP-LC retention time of 644 s. The figure for `Cc1nnc([C@@H]2CC(F)(F)CN2C(=O)Cc2c[nH]c3ccccc23)o1` is 723 s; for `COc1ccc(-c2nc3ncccn3c2Nc2ccccc2C)cc1` it is 705 s. The value for `CC(C)NC(=O)C1CCc2sc(C(=O)N3CCCCC3)cc2C1` (stereo not given) was 779 s. The value for `CC(Cc1cccs1)NC(=O)CCS(=O)(=O)c1ccccc1` (stereo not given) was 746 s. `CC(C)CNC(=O)c1ccc(-c2nc3cccnc3n2C2CCCCC2)cc1` displayed an RP-LC retention time of 926 s. As to `O=C(Cn1c(=O)c2cccn2c2ccccc21)NCCCc1ccccc1`, the RP-LC retention time was found to be 874 s.

Compound `O=C(CCSc1ccccc1)N1CCN(c2ccc3nnc(C4CC4)n3n2)CC1` returned an RP-LC retention time of 684 s. The value for `CCC1(O)CCC12CCN(C(=O)C1CCCC1)CC2` (stereo not given) was 773 s; that for `CCSc1ccccc1C(=O)N1CCN(CCn2cccn2)CC1` was 568 s; that for `CCc1nc2cc(N3CCC(C(=O)NCc4ccccc4F)CC3)cnc2nc1CC` was 840 s. As for `CCN1C(=O)COc2ccc(-c3csc(NC(=O)c4ccc(Cl)cc4)n3)cc21`, the RP-LC retention time came to 1090 s.
